Results from patent US20110182888A1, “Administration of an Inhibitor of HDAC, an Inhibitor of HER-2, and a Selective Estrogen Receptor Modulator” (priority 2008, published 2011).

Columns and labels:
[1] = tested on: P-erbB3, P-erbB2, P-MAPK, P-Akt, erbB3 and erbB2 in SKBR3, BT474 and MDA-MB-453 cells; assay: erbB receptor and downstream signaling levels upon SNDX-275 treatment; format: cell-based, human
Description: (§1) SNDX-275 had little effect on apoptosis induction and cell cycle progression in basal breast cancer MDA-MB-468, MDA-MB-231, and BT20 cells. […] Moreover, elevated expression of erbB3 via transfection with erbB3-containing expression vector abrogated SNDX-275-induced inactivation of the downstream signaling, apoptosis, and cell cycle arrest, whereas knockdown of erbB3 and/or erbB2 expression with specific shRNAs enhanced the efficacy of SNDX-275-induced inactivation of the downstream signaling, apoptosis, and cell cycle arrest in SKBR3 and BT474 cells.

[2] = tested on: erbB2-overexpressing SKBR3, BT474, and MDA-MB-453 cells; assay: Apoptotic-ELISA, western blots on PARP cleavage and caspase-3, -8, -9 activation, flow cytometry in erbB2-overexpressing cells; format: cell-based, human; details: SNDX-275 5 μM; SKBR3, BT474, MDA-MB-453 cells
Description: as §1

SKBR3 and BT474 cells = assay: erbB3 overexpression or erbB3/erbB2 shRNA knockdown and SNDX-275 response; format: cell-based, human
Description: as §1

[3] = tested on: basal breast cancer MDA-MB-468, MDA-MB-231, and BT20 cells; assay: apoptosis induction and cell cycle progression in basal breast cancer cells; format: cell-based, human; details: MDA-MB-468, MDA-MB-231, BT20 cells
Description: as §1

[4] = tested on: human breast cancer cells; details: through induction of TGFβ type II receptor or TRAIL expression, or degradation of DNMT1; cited from earlier work
[5] = tested on: erbB2-overexpressing breast cancer cells; assay: cell proliferation (MTS) assays, erbB2-overexpressing vs basal breast cancer cells; format: cell-based, human; details: MTS assay; erbB2-overexpressing breast cancer cells compared to basal cells
Description: as §1

Q: For Nc1ccccc1NC(=O)c1ccc(CNC(=O)OCc2cccnc2)cc1 [SNDX-275, N-(2-aminophenyl)-4-(N-(pyridin-3-ylmethoxycarbonyl)aminomethyl)benzamide], which erbB2 receptor [1] is on record?
A: lesser reduction

Q: What about the erbB3 protein [1] of the same compound?
A: rapid decrease

Q: What about the “levels of P-erbB3, P-erbB2, P-MAPK, and P-Akt” value [1] of the same compound?
A: significantly decreased

Q: And the “apoptosis and cell cycle arrest” value [2]?
A: induced apoptosis and cell cycle G1 arrest

Q: What about the “efficacy of SNDX-275-induced inactivation of downstream signaling, apoptosis, and cell cycle arrest with erbB3 and/or erbB2 knockdown” value (SKBR3 and BT474 cells; specific shRNAs, SKBR3 and BT474 cells) of the same compound?
A: enhanced

Q: And the “SNDX-275-induced inactivation of downstream signaling, apoptosis, and cell cycle arrest with elevated erbB3 expression” value (SKBR3 and BT474 cells; transfection with erbB3-containing expression vector)?
A: abrogated

Q: What about the “apoptosis induction and cell cycle progression” value [3] of the same compound?
A: little effect

Q: What about the proliferation and apoptosis [4] of the same compound?
A: inhibit proliferation and induce apoptosis

Q: What about the growth inhibition [5] of the same compound?
A: much stronger growth inhibition
